Test results as given in US20220054617A1, “SUBUNIT VACCINE CONSTRUCTS FOR FLAVIVIRUSES” (priority 2018, published 2022).

What was measured:
TLR-8 = TLR-8 (Homo sapiens, UniProt Q9NR97); conditions: in vitro
[1] = system: human whole blood or PBMCs
TLR-7 = TLR-7 (Homo sapiens, UniProt Q9NYK1); conditions: in vitro
albumin = conditions: human, non-human primate, pig, rabbit, rat, mouse; cited from earlier work

Sequence of TLR-8 (Q9NR97 27-1041): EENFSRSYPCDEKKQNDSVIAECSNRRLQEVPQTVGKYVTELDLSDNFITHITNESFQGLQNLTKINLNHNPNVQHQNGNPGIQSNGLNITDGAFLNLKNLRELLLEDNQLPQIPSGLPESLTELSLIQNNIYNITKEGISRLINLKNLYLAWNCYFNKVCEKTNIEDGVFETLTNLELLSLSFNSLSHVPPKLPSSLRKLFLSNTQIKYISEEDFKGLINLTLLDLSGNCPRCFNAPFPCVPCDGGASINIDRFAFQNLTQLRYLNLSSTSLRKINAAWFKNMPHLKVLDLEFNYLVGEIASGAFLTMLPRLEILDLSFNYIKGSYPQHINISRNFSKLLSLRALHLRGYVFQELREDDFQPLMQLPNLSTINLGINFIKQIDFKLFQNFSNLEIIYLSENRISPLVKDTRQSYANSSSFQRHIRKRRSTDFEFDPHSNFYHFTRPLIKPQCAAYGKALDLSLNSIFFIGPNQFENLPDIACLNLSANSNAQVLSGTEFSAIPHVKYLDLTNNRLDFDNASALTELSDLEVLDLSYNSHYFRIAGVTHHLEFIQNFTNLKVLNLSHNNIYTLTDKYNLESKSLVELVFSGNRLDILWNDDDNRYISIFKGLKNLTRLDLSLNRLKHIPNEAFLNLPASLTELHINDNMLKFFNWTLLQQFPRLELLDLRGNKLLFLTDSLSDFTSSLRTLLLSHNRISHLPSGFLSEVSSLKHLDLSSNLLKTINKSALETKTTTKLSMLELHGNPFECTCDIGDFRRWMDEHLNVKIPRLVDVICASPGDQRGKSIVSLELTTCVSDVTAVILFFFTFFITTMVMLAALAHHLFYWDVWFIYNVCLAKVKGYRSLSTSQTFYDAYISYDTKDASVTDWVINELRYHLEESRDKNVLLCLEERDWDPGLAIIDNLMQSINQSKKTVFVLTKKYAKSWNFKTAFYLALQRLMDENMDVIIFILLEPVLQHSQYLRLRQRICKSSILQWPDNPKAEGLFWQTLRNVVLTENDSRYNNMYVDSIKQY
Sequence of TLR-7 (Q9NYK1 27-1049, species assumed): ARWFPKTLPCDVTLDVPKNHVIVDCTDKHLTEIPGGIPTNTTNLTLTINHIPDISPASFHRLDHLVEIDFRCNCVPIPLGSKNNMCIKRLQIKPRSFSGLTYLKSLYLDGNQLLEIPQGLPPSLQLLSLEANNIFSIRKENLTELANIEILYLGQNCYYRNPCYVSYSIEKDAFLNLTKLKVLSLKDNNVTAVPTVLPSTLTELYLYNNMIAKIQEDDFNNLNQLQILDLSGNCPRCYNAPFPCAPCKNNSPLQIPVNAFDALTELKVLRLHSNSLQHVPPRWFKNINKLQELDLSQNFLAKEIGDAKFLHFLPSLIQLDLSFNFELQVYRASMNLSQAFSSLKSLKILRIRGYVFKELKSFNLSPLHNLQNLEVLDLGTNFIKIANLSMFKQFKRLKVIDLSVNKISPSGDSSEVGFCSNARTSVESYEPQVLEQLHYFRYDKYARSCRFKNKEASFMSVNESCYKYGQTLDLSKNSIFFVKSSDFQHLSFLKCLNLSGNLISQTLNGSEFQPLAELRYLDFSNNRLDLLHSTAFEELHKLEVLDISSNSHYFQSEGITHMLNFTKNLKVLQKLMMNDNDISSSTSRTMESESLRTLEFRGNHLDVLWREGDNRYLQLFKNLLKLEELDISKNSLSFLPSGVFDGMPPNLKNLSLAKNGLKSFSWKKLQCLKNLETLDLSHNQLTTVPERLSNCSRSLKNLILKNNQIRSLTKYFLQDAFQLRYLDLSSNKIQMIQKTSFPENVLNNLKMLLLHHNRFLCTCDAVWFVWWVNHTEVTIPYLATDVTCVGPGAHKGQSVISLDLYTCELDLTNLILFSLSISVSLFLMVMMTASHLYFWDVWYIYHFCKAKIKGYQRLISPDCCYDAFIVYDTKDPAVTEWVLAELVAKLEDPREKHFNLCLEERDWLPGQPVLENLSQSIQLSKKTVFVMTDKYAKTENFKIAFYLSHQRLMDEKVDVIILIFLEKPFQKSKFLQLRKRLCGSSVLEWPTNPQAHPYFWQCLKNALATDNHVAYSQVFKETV

## covalent conjugate of an imidazoquinoline TLR7/TLR8 dual agonist [5-(3-(aminomethyl)benzyl)-3-pentylquinolin-2-amine] with hyaluronic acid [EY-4-143]
TLR-8
  activity in TLR-8 primary assay: inactive
ZIKV; in vivo
  adjuvant effect: potent adjuvant
ZIKV; with the ZIKV antigen, several candidate adjuvants examined, preliminary screens
  elicitation of neutralizing antibodies after the first boost: consistently elicit neutralizing antibodies after the first boost
[1]
  cytokine induction: silent
TLR-7
  activity in TLR-7 primary assay: inactive

## SGP portion: portion of the Streptococcal G protein used as N-terminal tag, SEQ ID NO: 14 (LAEAKVLANRELDKYGVSDYYKNLINNAKTVEGVKALIDEILAALPK)
albumin
  binding to albumin: good binding
